“Also recorded” adds a separate entry of the source.
Experiments:
[1] = tested on: human cervical epithelial cells of the HeLa line; assay: Resazurin cell proliferation test, HeLa cells; type: cell-based; conditions: cervical cancer cells; IC50 equal to and greater than 100 μM considered no activity
Text: (§1) For cell culture, human cervical epithelial cells of the HeLa line, human epithelial pancreatic adenocarcinoma cells of the BxPC-3 line and healthy Madin-Darby canine kidney epithelial cells of the MDCK line were used in this study. The Resazurin cell proliferation test was applied according to the literature (S. Anoopkumar-Dukie, J. B. Carey, T. Conere, E. O'Sullivan, F. N. van Pelt, A. Allshire, Br J Radiol 2005, 78, 945, DOI: 10.1259/bjr/54004230). As an indicator of the effectiveness of the experimental compounds on cell proliferation, the median inhibitory concentration (IC50) was used. The lower the IC50 value, the higher the activity (in this case, the cytotoxicity).
Five formula I complexes were tested in this study in comparison to two reference anti-cancer compounds (“Cisplatin” and Doxorubicin complex).

[2] = tested on: families of European domestic bees; assay: 2nd test in the hives: power of the bee family; type: in vivo, Apis mellifera carpatica; conditions: overall dose 2 mg/hive, 10 hives
Protocol: The power of the bee colony represents the number of bees present in the honeycomb at the time of the assessment. The assessment is performed three times per year: at the spring visit (March-April), at the end of spring (20-31 May) and at the visit in autumn (September). After these three assessments, the average power of the bee family is determined. The amount of bees (kg) is determined by multiplying the number of intervals between the frames, uniformly occupied by the bees, by the coefficient 0.25 for the standard […] frame (435×300 mm) and by 0.2 for the standard Langstroth frame (435×230 mm). The 2nd test was performed in the same apiary the following year. Feeding with the complex of the invention took place in spring. The biological tests were monitored up to the month of September. The molecules tested, their concentration in solution and their annual overall doses are listed below: • 1. […] The concentration of the complex in syrup: 1.5×10^-7 mol/L. Overall product dose: 2 mg/colony • 2. […] Overall complex dose: 6 mg/colony • 4. LiCH3COO·H2O for comparison, abbreviated as Li-Ac • The feeding is carried out with 2000 g of candy containing 0.8 mg of product then 6 to 7 L of syrup containing 0.2 mg/L of product. The concentration of product in the syrup: 2.36×10^-6 mol/L that is 1.67×10^-5 g/L. Overall product dose: 2 mg/colony

Varroa destructor = assay: 2nd test in the hives: degree of larvae infestation with Varroa; type: in vivo; conditions: for Degree of larvae infestation with Varroa: 100 = larvae infestation rate of 28.2%; for Degree of larvae infestation with Varroa, change versus batch I: value in brackets
Protocol: The 2nd test was performed in the same apiary the following year. Feeding with the complex of the invention took place in spring. The biological tests were monitored up to the month of September. The molecules tested, their concentration in solution and their annual overall doses are listed below: • 1. […] The concentration of the complex in syrup: 1.5×10^-7 mol/L. Overall product dose: 2 mg/colony • 2. […] Overall complex dose: 6 mg/colony • 4. LiCH3COO·H2O for comparison, abbreviated as Li-Ac • The feeding is carried out with 2000 g of candy containing 0.8 mg of product then 6 to 7 L of syrup containing 0.2 mg/L of product. The concentration of product in the syrup: 2.36×10^-6 mol/L that is 1.67×10^-5 g/L. Overall product dose: 2 mg/colony [table]

bee colonies = assay: 3rd test in the hives: winter mortality of colonies, California 2019; type: in vivo, bees; conditions: single dose 4 mg per hive, 25-28 Oct. 2019, counted Jan. 7, 2020; 26 of 75 lost; control hives 61.8%
Protocol: A treatment campaign was carried out in the autumn-winter in apiaries located in California, near San Francisco. This region is particularly vulnerable to winter mortality of bee colonies which can reach as high as 80% in some years.
151 hives, distributed over 6 different apiaries in California to the south of San Francisco were selected. The bees were of different types: Wildflower (VSH-Italian), Beeweaver, Carniolan Californian Bee (Pope Canyon), Californian bee Tom and Italian Californian bee (Sam).
The hives were Langstroth 2 body type hives (15 frames compared to 10 for Dadant hives in Europe).
2019 by syringe in the form of a concentrated aqueous solution (8 g/L) in a sugar syrup into the feeding frame. 0.5 mL of this solution was introduced and dispersed in 3.5 liters of sugar syrup at 65% sugar and introduced into the hive. […] The control hives only received sugar syrup.
The surviving colonies were counted on Jan. 7, 2020. A total of 73 colonies out of the initial 151 died, that is an overall mortality of 48.3%.

[3] = tested on: HeLa, BxPC-3 and MDCK cells; conditions: BxPc-3 and HeLa
Text: as §1

bees = assay: Toxicity study on bees (lifespan of caged bees); type: in vivo
Protocol: Fifty newly hatched bees (age=1 day) were placed in a special cage with a wax strip, water and food, and were kept in the laboratory oven at a constant temperature of 33° C. and 50% humidity. […] The consumption of water and food was checked every day. Dead bees were counted and removed. For statistical reasons, the experiments were repeated up to 3 times if necessary.

bee families = conditions: feeding method of MD4438; cited from earlier work

SMILES	IC50, HeLa [1]	Power of the bee family [2]	Degree of larvae infestation with Varroa (Varroa destructor; overall dose 2 mg/hive)	Degree of larvae infestation with Varroa, change versus batch I (Varroa destructor; overall dose 2 mg/hive)	Degree of larvae infestation with Varroa (Varroa destructor; overall dose 6 mg/hive)	Degree of larvae infestation with Varroa, change versus batch I (Varroa destructor; overall dose 6 mg/hive)	Winter mortality of colonies (bee colonies)	Cytotoxicity, conclusion from Table 1 [3]	Survival of caged bees versus control group (bees; 2 mg/L in sucrose solution, p>0.05, χ2=3.36)	Survival of caged bees versus control group (bees; 20 mg/L in sucrose solution, p>0.05, χ2=0.04)	IC50 [1]	Effect on queens and bee families (bee families)
O.O.O.O.O.O.O=C([O-])CN(CCN(CC(=O)[O-])CC(=O)[O-])CC(=O)[O-].[Li+].[Li+].[O]=[Mo+]12[O][Mo+]1(=[O])[O]2 [Li—Mo2O4-EDTA, Li2[Mo2O4 (EDTA)]·6H2O]	Inactive	120 % relative to batch I	42.6 % relative to batch I	−57.4%	18.4 % relative to batch I	−81.6%	34.7%	no cytotoxicity	–	–	–	–
O.O.O.O.O.O=C([O-])CN(CCN(CC(=O)[O-])CC(=O)[O-])CC(=O)[O-].[Na+].[Na+].[O]=[Mo+]12[O][Mo+]1(=[O])[O]2 [Na—Mo2O4-EDTA, Na2[Mo2O4 (EDTA)]·5H2O]	Inactive	–	–	–	–	–	–	no cytotoxicity	no significant difference; also recorded: does not induce bee mortality	no significant difference; also recorded: does not induce bee mortality	–	–
O=C([O-])CN(CCN(CC(=O)[O-])CC(=O)[O-])CC(=O)[O-].[O]=[Mo+]12[O][Mo+]1(=[O])[O]2.c1ccc([P+](c2ccccc2)(c2ccccc2)c2ccccc2)cc1.c1ccc([P+](c2ccccc2)(c2ccccc2)c2ccccc2)cc1 [PPh4—Mo2O4-EDTA, (PPh4)2[Mo2O4 (EDTA)]·2.5H2O]	–	120 % relative to batch I	56.0 % relative to batch I	−44.0%	–	–	–	–	–	–	≥ 100 µM	stimulating the oogenesis functions of the queens, increasing the amount of larvae, improving the quantitative development of the bee families and increasing productivity thereof
CC(=O)[O-].[Li+] [Li—Ac, LiCH3COO·H2O, reference compound]	–	97.5 % relative to batch I	64.9 % relative to batch I	−35.1%	–	–	–	–	–	–	–	–

Reference: US12582721B2, “Molybdenum-based feed supplement for bees” (UNIVERSITE DE VERSAILLES—SAINT-QUENTIN-EN-YVELINES, priority 2020, dated 2026)
